Measurements as given in PMC9997437, “Initiation and modulation of Tau protein phase separation by the drug suramin” (Scientific Reports, 2023).

Biological target: T1, Tau (Homo sapiens, UniProt P10636)
T1 construct: gene MAPT; full-length wildtype Tau (hTau40; 441 aa; 2N4R isoform, UniprotKB P10636-8)
Assay: microscale thermophoresis (MST) with fluorescently labelled Tau; supported by trDLS, microscopy and TEM of Tau:suramin condensates
Format: binding

T1 sequence (P10636 2-441 isoform P10636-8): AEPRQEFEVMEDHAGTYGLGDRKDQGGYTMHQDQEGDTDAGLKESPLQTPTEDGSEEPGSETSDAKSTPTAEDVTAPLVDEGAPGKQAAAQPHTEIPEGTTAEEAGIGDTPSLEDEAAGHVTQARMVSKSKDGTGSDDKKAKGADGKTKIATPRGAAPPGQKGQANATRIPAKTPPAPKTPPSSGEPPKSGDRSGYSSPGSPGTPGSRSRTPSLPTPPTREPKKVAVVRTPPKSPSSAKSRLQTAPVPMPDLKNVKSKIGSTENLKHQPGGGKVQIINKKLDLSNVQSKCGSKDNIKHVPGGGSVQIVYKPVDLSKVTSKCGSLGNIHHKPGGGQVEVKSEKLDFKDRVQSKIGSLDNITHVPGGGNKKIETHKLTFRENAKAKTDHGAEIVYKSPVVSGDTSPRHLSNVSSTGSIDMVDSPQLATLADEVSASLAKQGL

Cc1ccc(C(=O)Nc2ccc(S(=O)(=O)O)c3cc(S(=O)(=O)O)cc(S(=O)(=O)O)c23)cc1NC(=O)c1cccc(NC(=O)Nc2cccc(C(=O)Nc3cc(C(=O)Nc4ccc(S(=O)(=O)O)c5cc(S(=O)(=O)O)cc(S(=O)(=O)O)c45)ccc3C)c2)c1 [suramin]
Kd: ~17 µM
